In patent US20230082430A1 (C4 Therapeutics, Inc., priority 2019, published 2023) one finds IC50 data, which are given here for 26 compounds.

Each structure is given as a SMILES string. Counter-ions that a name gives are not always drawn.

The subject of the assay is NCIH929.1 cells. In words: Cell viability assay for Table 2 (CellTiter-Glo 2.0, ATP quantification, 96 hr). The assay is classed as cell-based. The conditions noted are these: 96 h, NCIH929.1 cell viability, 96 hr, top concentration 1 μM, 14 points half log titration; read-out: IC50. An excerpt:
Cell Viability Assay for Table 2
CellTiter-Glo® 2.0 Assay was purchased from Promega (Madison, Wis., USA). NCIH929.1 cell line was purchased from ATCC (Manassas, Va., USA). Cell culture flasks and 384-well microplates were acquired from VWR (Radnor, Pa., USA).
On the technique in general: ATP-based viability assays read luminescence as a measure of living cells.
For the compound `CC1(C(=O)N2CCC(n3cc(Cc4ccc5c6c(cccc46)C(=O)N5C4CCC(=O)NC4=O)cn3)CC2)CCC1` (centres unmarked) [Compound 53, 3-(6-((1-(1-(1-methylcyclobutane-1-carbonyl)piperidin-4-yl)-1H-pyrazol-4-yl)methyl)-2-oxobenzo[cd]indol-1(2H)-yl)piperidine-2,6-dione], the IC50 (as a rule, the concentration that gives 50% inhibition) was less than 1 nM. As for `O=C1CCC(N2C(=O)c3cccc4c(Cc5cnn(C6CCN(C(=O)C78C9C%10C%11C9C7C%11C%108)CC6)c5)ccc2c34)C(=O)N1` (centres unmarked) [Compound 54, 3-(6-((1-(1-(cubane-1-carbonyl)piperidin-4-yl)-1H-pyrazol-4-yl)methyl)-2-oxobenzo[cd]indol-1(2H)-yl)piperidine-2,6-dione], the figure is less than 1 nM; as for `CC1(CN2CCC(n3cc(Cc4ccc5c6c(cccc46)C(=O)N5C4CCC(=O)NC4=O)cn3)CC2)CCC1` (centres unmarked) [Compound 55, 3-(6-((1-(1-((1-methylcyclobutyl)methyl)piperidin-4-yl)-1H-pyrazol-4-yl)methyl)-2-oxobenzo[cd]indol-1(2H)-yl)piperidine-2,6-dione], less than 1 nM; as for `COC1(CN2CCC(n3cc(Cc4ccc5c6c(cccc46)C(=O)N5C4CCC(=O)NC4=O)cn3)CC2)CCC1` (centres unmarked) [Compound 56, 3-(6-((1-(1-((1-methoxycyclobutyl)methyl)piperidin-4-yl)-1H-pyrazol-4-yl)methyl)-2-oxobenzo[cd]indol-1(2H)-yl)piperidine-2,6-dione], less than 1 nM. With `O=C1CCC(N2C(=O)c3cccc4c(Cc5cnn(C6CCN(CC7(C(F)(F)F)CCC7)CC6)c5)ccc2c34)C(=O)N1` (centres unmarked) [Compound 57, 3-(2-oxo-6-((1-(1-((1-(trifluoromethyl)cyclobutyl)methyl)piperidin-4-yl)-1H-pyrazol-4-yl)methyl)benzo[cd]indol-1(2H)-yl)piperidine-2,6-dione] the figure was less than 1 nM; with `COC(C)(C)CN1CCC(n2cc(Cc3ccc4c5c(cccc35)C(=O)N4C3CCC(=O)NC3=O)cn2)CC1` (centres unmarked) [Compound 58, 3-(6-((1-(1-(2-methoxy-2-methylpropyl)piperidin-4-yl)-1H-pyrazol-4-yl)methyl)-2-oxobenzo[cd]indol-1(2H)-yl)piperidine-2,6-dione], less than 1 nM.

Turning to `O=C1CCC(N2C(=O)c3cccc4c(Cc5cnn(C6CCN(CC7(F)CCC7)CC6)c5)ccc2c34)C(=O)N1` (centres unmarked) [Compound 59, 3-(6-((1-(1-((1-fluorocyclobutyl)methyl)piperidin-4-yl)-1H-pyrazol-4-yl)methyl)-2-oxobenzo[cd]indol-1(2H)-yl)piperidine-2,6-dione], the concentration for half-maximal inhibition (IC50) is less than 1 nM. Turning to `N#CC1(CN2CCC(n3cc(Cc4ccc5c6c(cccc46)C(=O)N5C4CCC(=O)NC4=O)cn3)CC2)CCC1` (centres unmarked) [Compound 60, 1-((4-(4-((1-(2,6-dioxopiperidin-3-yl)-2-oxo-1,2-dihydrobenzo[cd]indol-6-yl)methyl)-1H-pyrazol-1-yl)piperidin-1-yl)methyl)cyclobutane-1-carbonitrile], the IC50 was less than 1 nM. As for `CC(C)(C#N)CN1CCC(n2cc(Cc3ccc4c5c(cccc35)C(=O)N4C3CCC(=O)NC3=O)cn2)CC1` (centres unmarked) [Compound 61, 3-(4-(4-((1-(2,6-dioxopiperidin-3-yl)-2-oxo-1,2-dihydrobenzo[cd]indol-6-yl)methyl)-1H-pyrazol-1-yl)piperidin-1-yl)-2,2-dimethylpropanenitrile], the figure is less than 1 nM; as for `O=C1CCC(N2C(=O)c3cccc4c(Cc5cnn(C6CCN(CC7(C(F)(F)F)CC7)CC6)c5)ccc2c34)C(=O)N1` (centres unmarked) [Compound 62, 3-(2-oxo-6-((1-(1-((1-(trifluoromethyl)cyclopropyl)methyl)piperidin-4-yl)-1H-pyrazol-4-yl)methyl)benzo[cd]indol-1(2H)-yl)piperidine-2,6-dione], less than 1 nM; as for `CC(C)(C)CN1CCC(n2cc(Cc3ccc4c5c(cccc35)C(=O)N4C3CCC(=O)NC3=O)cn2)CC1` (centres unmarked) [Compound 63, 3-(6-((1-(1-neopentylpiperidin-4-yl)-1H-pyrazol-4-yl)methyl)-2-oxobenzo[cd]indol-1(2H)-yl)piperidine-2,6-dione], less than 1 nM. With `CC1(CN2CCC(n3cc(Cc4ccc5c6c(cccc46)C(=O)N5C4CCC(=O)NC4=O)cn3)CC2)CC1` (centres unmarked) [Compound 64, 3-[6-[[1-[1-[(1-methylcyclopropyl)methyl]-4-piperidyl]pyrazol-4-yl]methyl]-2-oxo-benzo[cd]indol-1-yl]piperidine-2,6-dione], the IC50 is less than 1 nM. With `O=C1CCC(N2C(=O)c3cccc4c(Cc5cnn(C6CCN(CC7(F)CC7)CC6)c5)ccc2c34)C(=O)N1` (centres unmarked) [Compound 65, 3-(6-((1-(1-((1-fluorocyclopropyl)methyl)piperidin-4-yl)-1H-pyrazol-4-yl)methyl)-2-oxobenzo[cd]indol-1(2H)-yl)piperidine-2,6-dione] the figure was less than 1 nM; with `COC1(CN2CCC(n3cc(Cc4ccc5c6c(cccc46)C(=O)N5C4CCC(=O)NC4=O)cn3)CC2)CC1` (centres unmarked) [Compound 66, 3-(6-((1-(1-((1-methoxycyclopropyl)methyl)piperidin-4-yl)-1H-pyrazol-4-yl)methyl)-2-oxobenzo[cd]indol-1(2H)-yl)piperidine-2,6-dione], less than 1 nM. Turning to `CC1(n2cc(Cc3ccc4c5c(cccc35)C(=O)N4C3CCC(=O)NC3=O)cn2)CCNCC1` (centres unmarked) [Compound 69, 3-(6-((1-(4-methylpiperidin-4-yl)-1H-pyrazol-4-yl)methyl)-2-oxobenzo[cd]indol-1(2H)-yl)piperidine-2,6-dione hydrochloride], the IC50 was less than 100 nM.

As to `CC1(n2cc(Cc3ccc4c5c(cccc35)C(=O)N4C3CCC(=O)NC3=O)cn2)CCN(C(=O)C23C4C5C6C4C2C6C53)CC1` (stereo not drawn) [Compound 70, 3-(6-((1-(l-(cubane-1-carbonyl)-4-methylpiperidin-4-yl)-1H-pyrazol-4-yl)methyl)-2-oxobenzo[cd]indol-1(2H)-yl)piperidine-2,6-dione], the IC50 was less than 1 nM.

Regarding `CC1(n2cc(Cc3ccc4c5c(cccc35)C(=O)N4C3CCC(=O)NC3=O)cn2)CCN(C(=O)C23COC(C2)C3)CC1` (centres unmarked) [Compound 71, 3-(6-{1-[4-Methyl-1-(2-oxa-bicyclo[2.1.1]hexane-4-carbonyl)-piperidin-4-yl]-1H-pyrazol-4-ylmethyl}-2-oxo-2H-benzo[cd]indol-1-yl)-piperidine-2,6-dione], the IC50 was less than 1 nM. With `CC1(n2cc(Cc3ccc4c5c(cccc35)C(=O)N4C3CCC(=O)NC3=O)cn2)CCN(C(=O)C2(C#N)CCCCC2)CC1` (centres unmarked) [Compound 72, 1-(4-(4-((1-(2,6-dioxopiperidin-3-yl)-2-oxo-1,2-dihydrobenzo[cd]indol-6-yl)methyl)-1H-pyrazol-1-yl)-4-methylpiperidine-1-carbonyl)cyclohexane-1-carbonitrile], the IC50 is less than 1 nM.

For the compound `CC1(n2cc(Cc3ccc4c5c(cccc35)C(=O)N4C3CCC(=O)NC3=O)cn2)CCN(C(=O)C23CCN(CC2)CC3)CC1` (stereo not drawn) [Compound 73, 3-(6-((l-(4-methyl-1-(quinuclidine-4-carbonyl)piperidin-4-yl)-1H-pyrazol-4-yl)methyl)-2-oxobenzo[cd]indol-1(2H)-yl)piperidine-2,6-dione], the IC50 is less than 100 nM. As for `CC1(n2cc(Cc3ccc4c5c(cccc35)C(=O)N4C3CCC(=O)NC3=O)cn2)CCN(C(=O)C23CCN(CC2)C3)CC1` (centres unmarked) [Compound 74, 3-(6-((1-(1-(1-azabicydo[2.2.1]heptane-4-carbonyl)-4-methylpiperidin-4-yl)-1H-pyrazol-4-yl)methyl)-2-oxobenzo[cd]indol-1(2H)-yl)piperidine-2,6-dione], the IC50 is less than 100 nM. With `CC(=O)N1CCC(C)(n2cc(Cc3ccc4c5c(cccc35)C(=O)N4C3CCC(=O)NC3=O)cn2)CC1` (centres unmarked) [Compound 75, 3-(6-((1-(1-acetyl-4-methylpiperidin-4-yl)-1H-pyrazol-4-yl)methyl)-2-oxobenzo[cd]indol-1(2H)-yl)piperidine-2,6-dione] the figure was less than 1 nM. For the compound `CC1(n2cc(Cc3ccc4c5c(cccc35)C(=O)N4C3CCC(=O)NC3=O)cn2)CCN(C(=O)C2(C(F)F)CC2)CC1` (centres unmarked) [Compound 76, 3-(6-((1-(1-(1-(difluoromethyl)cyclopropane-1-carbonyl)-4-methylpiperidin-4-yl)-1H-pyrazol-4-yl)methyl)-2-oxobenzo[cd]indol-1(2H)-yl)piperidine-2,6-dione], the IC50 is less than 1 nM.

For `CC1(n2cc(Cc3ccc4c5c(cccc35)C(=O)N4C3CCC(=O)NC3=O)cn2)CCN(C(=O)C2(C(F)(F)F)CC2)CC1` (centres unmarked) [Compound 77, 3-(6-((1-(4-methyl-1-(1-(trifluoromethyl)cyclopropane-1-carbonyl)piperidin-4-yl)-1H-pyrazol-4-yl)methyl)-2-oxobenzo[cd]indol-1(2H)-yl)piperidine-2,6-dione], the IC50 is less than 1 nM. With `CC1(n2cc(Cc3ccc4c5c(cccc35)C(=O)N4C3CCC(=O)NC3=O)cn2)CCN(C(=O)C2(C(F)(F)F)CCC2)CC1` (centres unmarked) [Compound 78, 3-(6-((1-(4-methyl-1-(1-(trifluoromethyl)cyclobutane-1-carbonyl)piperidin-4-yl)-1H-pyrazol-4-yl)methyl)-2-oxobenzo[cd]indol-1(2H)-yl)piperidine-2,6-dione] the figure was less than 1 nM; with `CC1(n2cc(Cc3ccc4c5c(cccc35)C(=O)N4C3CCC(=O)NC3=O)cn2)CCN(C(=O)C2(C#N)CC2)CC1` (centres unmarked) [Compound 79, 1-(4-(4-((1-(2,6-dioxopiperidin-3-yl)-2-oxo-1,2-dihydrobenzo[cd]indol-6-yl)methyl)-1H-pyrazol-1-yl)-4-methylpiperidine-1-carbonyl)cyclopropane-1-carbonitrile], less than 1 nM. For the compound `CC(C)(C#N)C(=O)N1CCC(C)(n2cc(Cc3ccc4c5c(cccc35)C(=O)N4C3CCC(=O)NC3=O)cn2)CC1` (centres unmarked) [Compound 80, 3-(4-(4-((1-(2,6-dioxopiperidin-3-yl)-2-oxo-1,2-dihydrobenzo[cd]indol-6-yl)methyl)-1H-pyrazol-1-yl)-4-methylpiperidin-1-yl)-2,2-dimethyl-3-oxopropanenitrile], the IC50 was less than 1 nM.
